Assay [1] concerns GM3 expression on the cell surface, B16 mouse melanoma cells. Nature of the assay: cell based phenotypic assay, cell surface GM3 by antibody mediated immunofluorescence, B16 (GM3 B16 IC50). The following applies: Mus musculus, B16 mouse melanoma cells; 50% inhibition of GM3 expression on the cell surface; read-out: GM3 B16 IC50. In outline:
(§1)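 Both lines undergo the phenotypic GM3 assay, and viability is recorded from that same cell-based run.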

Assay [2] addresses T1, glucosylceramide synthase (Homo sapiens, UniProt Q16739).
T1 construct: Microsomes were isolated from A375 human melanoma cells; endogenous in cells; host or cells: A375 human melanoma cells (microsomal fraction, 100,000 g pellet)
T1 sequence (Q16739 1-394): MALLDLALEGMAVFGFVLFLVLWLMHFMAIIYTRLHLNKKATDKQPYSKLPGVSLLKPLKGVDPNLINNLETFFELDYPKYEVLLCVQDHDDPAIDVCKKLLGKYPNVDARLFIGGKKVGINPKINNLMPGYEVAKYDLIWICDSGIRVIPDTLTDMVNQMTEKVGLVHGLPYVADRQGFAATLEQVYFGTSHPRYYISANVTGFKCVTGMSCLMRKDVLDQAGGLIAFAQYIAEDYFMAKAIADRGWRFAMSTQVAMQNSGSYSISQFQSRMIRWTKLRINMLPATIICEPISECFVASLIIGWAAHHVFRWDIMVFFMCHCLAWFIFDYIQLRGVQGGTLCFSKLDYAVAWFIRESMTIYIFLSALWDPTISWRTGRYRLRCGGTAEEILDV
Briefly: microsomal assay measuring conversion of ceramide to glucosylceramide by HPLC (GCS IC50). The following applies: concentration causing 50% inhibition of glucosylceramide synthase activity. Type of assay: biochemical. The method, boiled down:
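IC50 is the compound concentration halving glucosylceramide synthase activity. Activity was measured in microsomes, with HPLC quantifying glucosylceramide formed from ceramide.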

The subject of a further assay is C32 human melanoma cells. Nature of the assay: cell viability in the C32 cell-based assay (Viability, C32 IC50). Conditions: Homo sapiens, C32, C32 cells; concentration causing 50% cell death; values greater than 10 represent a lack of cell death; read-out: Viability, C32 IC50. The method, boiled down:
(§2)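 Cell death was scored within the cell-based GM3 experiment for each line. The viability value is the concentration producing 50% death, and numbers exceeding 10 signify no cytotoxicity.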

In assay [3] the test system is GM3 expression on the cell surface, C32 human melanoma cells. Briefly: cell based phenotypic assay, cell surface GM3 by antibody mediated immunofluorescence, C32 (GM3 C32 IC50). The following applies: Homo sapiens, C32 human melanoma cells; 50% inhibition of GM3 expression on the cell surface; read-out: GM3 C32 IC50. The method, boiled down:
as §1

The test system of a further assay is B16 mouse melanoma cells. Briefly: cell viability in the B16 cell-based assay (Viability, B16 IC50). The following applies: Mus musculus, B16, B16 cells; concentration causing 50% cell death; values greater than 10 represent a lack of cell death; read-out: Viability, B16 IC50. The method, boiled down: as §2

The results in this text go back to patent publication US12060349B2, “Glucosylceramide synthase inhibitors” (Genzyme Corporation, priority 2012, dated 2024).

By IC50 is commonly meant the midpoint of a concentration-inhibition curve.

Consider `CC1(NC(=O)C2CCN(c3ncc(F)c(-c4ccc(F)cc4)n3)CC2)CN2CCC1CC2` (stereo not shown) [Example 54, 1-(5-Fluoro-4-(4-fluorophenyl)pyrimidin-2-yl)-N-(3-methylquinuclidin-3-yl)piperidine-4-carboxamide], for which the IC50 stood at 106 nM in assay [1]; 0.734 nM in assay [2]; 8040 nM with C32 human melanoma cells; 0.0902 nM in assay [3]; 5130 nM in the assay on B16 mouse melanoma cells.
On the same counts, the results for `CC1(NC(=O)C2CCN(c3ncc(F)c(-c4ccc(F)cc4)n3)CC2)CCN2CCC1CC2` (stereo not shown) [Example 55, 1-(5-Fluoro-4-(4-fluorophenyl)pyrimidin-2-yl)-N-(4-methyl-1-azabicyclo[3.2.2]nonan-4-yl)piperidine-4-carboxamide] are 47.5 nM, 0.736 nM, 100 nM, 0.0479 nM and 3740 nM.
On the same counts, the results for `COCCOc1ccc(-c2nc(N3CCC(C(=O)NC4(C)CCN5CCC4CC5)CC3)ncc2F)cc1` (stereo not shown) [Example 56, 1-(5-Fluoro-4-(4-(2-methoxyethoxy)phenyl)pyrimidin-2-yl)-N-(4-methyl-1-azabicyclo[3.2.2]nonan-4-yl)piperidine-4-carboxamide] are 20.9 nM, 4.63 nM, 7420 nM, 0.173 nM and 6760 nM.
In the case of `COCCOCc1ccc(-c2nc(N3CCC(C(=O)NC4(C)CCN5CCC4CC5)CC3)ncc2F)cc1` (stereo not shown) [Example 58, 1-(5-Fluoro-4-(4-((2-methoxyethoxy)methyl)phenyl)pyrimidin-2-yl)-N-(4-methyl-1-azabicyclo[3.2.2]nonan-4-yl)piperidine-4-carboxamide], the IC50 in assay [1] is 40.5 nM; in assay [2], 3.39 nM; in the assay on C32 human melanoma cells, 1000 nM; in assay [3] it was 0.17 nM; in the assay on B16 mouse melanoma cells, no less than 10000 nM.
On the same counts, the results for `COCCOCc1ccc(-c2nc(N3CCC(C(=O)NC4(C)CN5CCC4CC5)CC3)ncc2F)cc1` (stereo not shown) [Example 59, 1-(5-Fluoro-4-(4-((2-methoxyethoxy)methyl)phenyl)pyrimidin-2-yl)-N-(3-methylquinuclidin-3-yl)piperidine-4-carboxamide] are 152 nM, 9.18 nM, 464 nM, 0.339 nM and no less than 10000 nM.
Taken in the same sequence, the figures for `COCc1ccc(-c2nc(N3CCC(C(=O)NC4(C)CCN5CCC4CC5)CC3)ncc2F)cc1` (stereo not shown) [Example 60, 1-(5-Fluoro-4-(4-(methoxymethyl)phenyl)pyrimidin-2-yl)-N-(4-methyl-1-azabicyclo[3.2.2]nonan-4-yl)piperidine-4-carboxamide] were 15.5 nM, 1.68 nM, 46.4 nM, 0.1 nM and 3500 nM.
Taken in the same sequence, the figures for `COCc1ccc(-c2nc(N3CCC(C(=O)NC4(C)CN5CCC4CC5)CC3)ncc2F)cc1` (stereo not shown) [Example 61, 1-(5-Fluoro-4-(4-(methoxymethyl)phenyl)pyrimidin-2-yl)-N-(3-methylquinuclidin-3-yl)piperidine-4-carboxamide] were 52.4 nM, 1.41 nM, 46.4 nM, 0.13 nM and 8540 nM.
For the compound `COCCCOc1ccc(-c2nc(N3CCC(C(=O)NC4(C)CCN5CCC4CC5)CC3)ncc2F)cc1` (stereo not shown) [Example 62, 1-(5-Fluoro-4-(4-(3-methoxypropoxy)phenyl)pyrimidin-2-yl)-N-(4-methyl-1-azabicyclo[3.2.2]nonan-4-yl)piperidine-4-carboxamide], the 50% inhibitory concentration (IC50) in assay [1] worked out at 10.5 nM; in assay [2], 0.931 nM; with C32 human melanoma cells, 100 nM; in assay [3], 0.109 nM; with B16 mouse melanoma cells it was 2390 nM.
